Source: US5466675A, “Immunological activity of rhamnolipids” (priority 1992, dated 1995)
Like-named read-outs stand apart in the source and are kept apart here.

Legend:
[1] = target: P59fyn Tyrosine Kinase (Homo sapiens, UniProt P06241); assay: enzyme inhibition, p59fyn tyrosine kinase; type: biochemical; settings: 0.5% DMSO
Experimental: (§1) Rhamnolipid (II) was tested in vitro against a wide array of enzymes.
(§2) All enzyme assays were done spectrophotometrically by computer linked automatic microplate reader (Labsystem Multiskan) and Diode Array spectrophotometer (Perkin Elmer).

[2] = tested on: sheep red blood cell (SRBC) hemagglutination; assay: immunosuppression (humoral): sheep red blood cell (SRBC) hemagglutination; type: in vivo, mouse (ICR, female)
Experimental: (§3) Groups of 6 mice were sensitized by the IV injection of 0.2 ml of a 2% SRBC suspension. On the 9th day following sensitization, blood samples were withdrawn from the orbital sinus and equal parts of complement inactivated serum from the group of 6 mice were pooled to yield a single 0.25 ml sample. Serial 2-fold dilutions were then carried out 10 times in the presence of added complement. […] Serum titers of less than 16 or greater than 128 are considered significant and indicate possible immunosuppressant and immunostimulant activity, respectively.
(§4) For immunostimulant activity, test substance or vehicle was administered i.p. to groups of mice for 3 consecutive days, and sensitized to SRBCs 2 hours after the third (last) injection. For immunosuppressant activity, test substance or vehicle was administered i.p. to groups of mice for 3 consecutive days beginning 2 hours after sensitization to SRBCs.

[3] = tested on: sheep red blood cell (SRBC) hemagglutination; assay: immunostimulation (humoral): sheep red blood cell (SRBC) hemagglutination; type: in vivo, mouse (ICR, female)
Experimental: as §3, §4

[4] = tested on: mice C57B1/6; settings: mouse, in vivo
Experimental: Tests were performed on mice C57B1/6, Animal source: Bantin and Kingman. This was done following the procedures described elsewhere in Technical Report Series, National Toxicology Program, U.S. Department of Health and Human services.
Examinations were made in all tests on the following tissues from each mouse necropsied: bone (femur), bone marrow (femur)-slide only, brain, colon, duodenum, testes, heart, kidneys, liver, lungs (infuse with formalin), pancreas, spleen, muscle, adrenal nodes, uterus, gastric.

[5] = tested on: Psoriasis; assay: clinical treatment of psoriasis; type: in vivo, human
Experimental: 17 patients, 11 men and 6 women, were treated with rhamnolipid (II). Among these, 12 patients were suffering from Psoriasis, 2 from Neurodermitis, 1 from Lichen ruber planus, 1 from Serborhoic dermatitis and one from Dermatitis circumscripta unilocularis eczematoides.
All patients were treated by application of a cream containing rhamnolipid II over selected psoriatic localities, 2 times a day for 21 days.
The remaining psoriatic localities on the body were treated with local corticosteroid.
The treatment and the follow-up of the patients was a "double blind" experiment.
The therapeutic efficacy was monitored by PASI-index.
After observing positive results with the first six psoriatic patients, who were treated and monitored until the end of the year, rhamnolipid was applied on larger psoriatic surfaces (up to a half of the patient's body where psoriatic lesions existed). Also, occlusions were used (up to 48 hours) and the duration and usage of occlusions was prolonged up to 35 days.
Patients were seen 3, 6 and 9 months after treatment and they were instructed not to apply any other local preparations at the same localities where rhamnolipic II was applied.

[6] = tested on: T-cells isolated from mouse thymus; assay: T-lymphocyte proliferation + Con A; type: cell-based
Experimental: Procedure: T-cells were isolated from mouse thymus using conventional procedures, and suspended in DMEM. 5×10^6 cells/ml are incubated overnight at 37° C. in the presence of 3 ug/ml Con A to assess stimulation (positive score, related to 10 U/ml rat interleukin-2) or suppression (negative score, related to control) of cell proliferation. Test substance was evaluated under these conditions at 10, 1, 0.1 and 0.01 uM. After overnight incubation, 2 uCi [^3 H] thymidine is added to each well. Cells were harvested after an additional 48 hour incubation, and thymidine incorporation assessed by liquid scintillation counting.

[7] = tested on: HIV I, strain IIIB; assay: effect on viruses, HIV I strain IIIB; type: cell-based; settings: Human immunodeficiency virus 1, IIIB; read-out: maximal protection
Experimental: (§5) Tests were performed according to D. A. Vanden Berghe et al., Inst. Pasteur 84,101 (1986). Rhamnolipid (II) was toxic for VERO cells in concentrations ≥200 ug/ml, and cytotoxic on MT4 cells in concentrations >169.40 ug/ml.

[8] = tested on: Staphylococcus aureus; assay: minimum inhibitory concentration, Staphylococcus aureus; type: cell-based; settings: in tested medium
From the text: The Minimum inhibitory concentration (MIC) of Rhamnolipid II for Candida albicans, Escherichia coli, Staphylococcus aureus and Pseudomonas aeruginosa was >0.5% in tested medium.

[9] = in vitro; settings: human, mt4 cells
[10] = tested on: alpha-amylase; assay: enzyme inhibition, alpha-amylase; type: biochemical
Experimental: as §1
(§6) The following enzymes were inhibited at the various rhamnolipid concentrations indicated:
as §2

[11] = tested on: A431 human epidermal cells; assay: A431 cell DNA synthesis ([3H] thymidine incorporation); type: cell-based; settings: for inhibition of DNA synthesis: absence of serum growth factors; for activity at 1 µg/mL / activity at 10 µg/mL / activity at 100 µg/mL: Homo sapiens, read-out: DNA synthesis, % placebo
Experimental: A431 cells were cultured for 24 h in microtitter platesm, with serum free medium or in the presence of serum with rhamnolipid. Then, [^3 H] thymidine was added and cells were harvested after 48 h; [^3 H] incorporated into DNA was determined.

[12] = tested on: vesicular stomatitis virus; type: cell-based; settings: concentrations ≤100 ug/ml
[13] = tested on: semliki forest virus; assay: effect on viruses, semliki forest; type: cell-based; settings: concentrations ≤100 ug/ml
Experimental: as §5

[14] = tested on: trypsin; assay: enzyme inhibition, trypsin; type: biochemical
Experimental: as §1, §6, §2

P59fyn Tyrosine Kinase, sequence (P06241 whole entry): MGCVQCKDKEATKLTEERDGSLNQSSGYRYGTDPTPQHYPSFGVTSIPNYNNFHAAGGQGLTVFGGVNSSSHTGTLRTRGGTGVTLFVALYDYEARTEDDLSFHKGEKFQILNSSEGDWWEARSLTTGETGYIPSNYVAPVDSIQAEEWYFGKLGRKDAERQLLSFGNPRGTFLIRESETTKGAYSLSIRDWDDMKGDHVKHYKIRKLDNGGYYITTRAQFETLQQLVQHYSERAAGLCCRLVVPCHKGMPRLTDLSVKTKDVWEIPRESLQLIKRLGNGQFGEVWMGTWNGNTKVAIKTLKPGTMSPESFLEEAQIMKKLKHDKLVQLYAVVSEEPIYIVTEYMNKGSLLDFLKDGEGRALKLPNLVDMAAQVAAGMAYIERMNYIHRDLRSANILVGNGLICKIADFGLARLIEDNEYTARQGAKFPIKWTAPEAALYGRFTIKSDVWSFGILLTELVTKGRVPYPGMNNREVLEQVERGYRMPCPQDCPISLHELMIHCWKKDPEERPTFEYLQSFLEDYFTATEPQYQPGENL

## CCCCCCCC(CC(=O)O)OC(=O)CC(CCCCCCC)O[C@@H]1O[C@@H](C)[C@H](O)[C@@H](O)[C@H]1O[C@@H]1O[C@@H](C)[C@H](O)[C@@H](O)[C@H]1O (stereo partly drawn) [Rhamnolipid (II), (alpha-L-rhamnopyranosyl-(1,2)alpha-L-rhamnopyranosyl)-3-hydroxydecanoyl-3-hydroxydecanoic acid]
[1]; 0.01 μM
  inhibition at 0.01 µM: 1%
[1]; 1 μM
  inhibition at 1 µM: 0%
[1]; 100 μM
  inhibition at 100 µM: 15%
[2]; IP 0.1 × 3 mg/kg
  SERUM TITER (Reciprocal Serum Dilution): 32
[2]; IP 1 × 3 mg/kg
  SERUM TITER (Reciprocal Serum Dilution): 32
[2]; IP 10 × 3 mg/kg
  SERUM TITER (Reciprocal Serum Dilution): 128
[2]; IP 100 × 3 mg/kg
  SERUM TITER (Reciprocal Serum Dilution): 16
  died on Day 3: 2/6
[3]; IP 0.1 × 3 mg/kg
  SERUM TITER (Reciprocal Serum Dilution): 64
[3]; IP 1 × 3 mg/kg
  SERUM TITER (Reciprocal Serum Dilution): 64
[3]; IP 10 × 3 mg/kg
  SERUM TITER (Reciprocal Serum Dilution): 128
[3]; IP 100 × 3 mg/kg
  SERUM TITER (Reciprocal Serum Dilution): 8
  died on Day 3: 1/6
[4]
  pathohistological changes: none of the regressive-progressive or inflammatory type of changes were detected
[5]; 1% concentration
  curative effects in comparison with corticosteroids: long-lasting curative effects
[5]; 1% concentration, some patients
  remission of the treated area: still in remission of the treated area after three years
[5]; 10 months after treatment, versus local corticosteroid
  appearance of relapses: significantly delayed
[5]; cream, 2 times a day for 21 days, follow up 3, 6 and 9 months
  results on psoriatic lesions: good results
[5]; in most cases
  time to curative effect versus local corticosteroid: sooner or in the same period of time it took local corticosteroid
[5]; some patients, 10 months following the treatment, larger surfaces, occlusions
  relapses: no relapses were observed even after 10 months
[6]; 10 uM, with Con A
  T-cell proliferation: inhibited
[6]; 10 uM, with ConA
  in vitro T cell immunosuppression activity: T cell immunosuppression activity
[6]; Mus musculus, T-cell, read-out: % Stimulation (+)/Suppression (-)
  activation at 0.001 µM: 4%
[6]; Mus musculus, T-cell, 0.01 uM, ConA, 0.5% DMSO, read-out: % Stimulation (+)/Suppression (-)
  activation at 0.01 µM: 7%
[6]; Mus musculus, T-cell, 0.1 uM, ConA, 0.5% DMSO, read-out: % Stimulation (+)/Suppression (-)
  activation at 0.1 µM: 7%
[6]; Mus musculus, T-cell, 1 uM, ConA, 0.5% DMSO, read-out: % Stimulation (+)/Suppression (-)
  activation at 1 µM: 3%
[6]; Mus musculus, T-cell, 10 uM, ConA, 0.5% DMSO, read-out: % Stimulation (+)/Suppression (-)
  activation at 10 µM: -43%
[7]
  Emax: 9%
[8]
  Minimum inhibitory concentration (MIC): > 0.5%
[9]
  MCC: > 169 µg/mL
[10]
  concentration at which the enzyme was inhibited: 1 mg/mL
[11]; 0.1 mg/ml
  inhibition of DNA synthesis: completely inhibited
[11]; 0.1 mg/ml, listed as rhamnolipid II
  inhibition of DNA synthesis: total inhibition
[11]; 10 (v/v) % FCS, 0.001 mg/ml
  DNA synthesis [3H] Thy inc.: 35400 +/- 2786 dpm
[11]; 10 (v/v) % FCS, 0.01 mg/ml
  DNA synthesis [3H] Thy inc.: 31273 +/- 2028 dpm
[11]; 10 (v/v) % FCS, 0.1 mg/ml
  DNA synthesis [3H] Thy inc.: 37055 +/- 1881 dpm
[11]; A-431, 10 (v/v) % FCS, 0.001 mg/ml
  activity at 1 µg/mL: 106 ± 8%
[11]; A-431, 10 (v/v) % FCS, 0.01 mg/ml
  activity at 10 µg/mL: 94 ± 6%
[11]; A-431, 10 (v/v) % FCS, 0.1 mg/ml
  activity at 100 µg/mL: 111 ± 6%
[11]; A-431, serum free medium, 0.001 mg/ml
  activity at 1 µg/mL: 91 ± 32%
[11]; A-431, serum free medium, 0.01 mg/ml
  activity at 10 µg/mL: 64 ± 19%
[11]; A-431, serum free medium, 0.1 mg/ml
  activity at 100 µg/mL: 2 ± 2%
[11]; serum free medium, 0.001 mg/ml
  DNA synthesis [3H] Thy inc.: 6935 +/- 2432 dpm
[11]; serum free medium, 0.01 mg/ml
  DNA synthesis [3H] Thy inc.: 4885 +/- 1480 dpm
[11]; serum free medium, 0.1 mg/ml
  DNA synthesis [3H] Thy inc.: 134 +/- 129 dpm
[12]
  antiviral activity: no activity
[13]
  antiviral activity: no activity
[14]
  concentration at which the enzyme was inhibited: 1 mg/mL
